The results in this text go back to US20250223281A1, “ANTIDIABETIC COMPOUNDS AND COMPOSITIONS” (REZUBIO PHARMACEUTICALS CO., LTD, priority 2022, published 2025).

The target of this assay is T1, GPR40 (Homo sapiens, UniProt O14842).
T1 construct: expressed in transfected cells; host or cells: HEK293 cells stably expressing GPR40 (Hygromycin selection)
Description: IP1 accumulation assay in HEK293 cells stably expressing GPR40. The class given is cell-based. A digest of the protocol:
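HEK293 cells stably expressing human GPR40 were incubated with compounds (10-point, 3-fold dilution series) for 2 h at 37 °C, then IP1 was detected by HTRF (665/615 nm ratio). Effect was normalised to DMSO blank and AMG-1638 as 100%, and EC50 was derived from dose curves.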

[1] abbreviates: IP1 accumulation, HEK293 cells stably expressing GPR40, 2 hours at 37° C., % effect relative to AMG-1638, table of Biological Example 1.
[2] abbreviates: Tables A-1a to A-7b (structure-property relationship), obtained by methods of Biological Example 1.

T1 sequence (O14842 whole entry): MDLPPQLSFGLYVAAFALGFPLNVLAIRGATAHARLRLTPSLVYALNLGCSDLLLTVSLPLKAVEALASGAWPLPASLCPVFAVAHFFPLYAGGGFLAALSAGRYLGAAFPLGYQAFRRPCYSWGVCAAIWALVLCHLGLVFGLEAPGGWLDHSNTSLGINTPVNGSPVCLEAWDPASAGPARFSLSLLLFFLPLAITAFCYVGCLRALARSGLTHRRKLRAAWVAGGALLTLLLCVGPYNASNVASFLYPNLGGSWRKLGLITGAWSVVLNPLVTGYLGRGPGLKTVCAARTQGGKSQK

On to `C[C@H](C(=O)O)[C@H](c1ccc2c(c1)O[C@@H](C1CCN(Cc3cc(-n4cc(CCCCCCCCC(=O)NCCN(CCC(=O)NCCN)CCC(=O)NCCN)nn4)ccc3OC(F)(F)F)CC1)CC2)C1CC1` [Example 80], for which the EC50 by setting is: under setting [1], greater than 5000 nM; under setting [2], greater than 5000 nM.
`COc1ccc(F)c(-c2ccc(COc3cccc([C@@H](CC(=O)O)C4CC4)c3)cc2CC(C)(C)Cn2cc(CCCCCCCCCCCCCCCCCC(=O)NCCCN(CC(=O)O)CC(=O)O)nn2)c1` [Example 81] showed an EC50 under setting [1] of 2.2 nM.
`C[C@H](C(=O)O)[C@H](c1ccc2c(c1)O[C@@H](C1CCN(Cc3cc(-c4cn(CCCCCCCCCC(=O)NCC[N+](C)(CCC(=O)NCCN)CCC(=O)NCCN)nn4)ccc3OC(F)(F)F)CC1)CC2)C1CC1` [Example 82]: the EC50 runs as follows: under setting [1], greater than 10000 nM; under setting [2], greater than 10000 nM.
With `C[C@H](C(=O)O)[C@H](c1ccc2c(c1)O[C@@H](C1CCN(Cc3cc(-c4cn(CCCCCCCCCCCC(=O)NCC[N+](C)(CCC(=O)NCCN)CCC(=O)NCCN)nn4)ccc3OC(F)(F)F)CC1)CC2)C1CC1` [Example 83], the EC50 by setting is: under setting [1], 651 nM; under setting [2], 650 nM.
On the same counts, the results for `C[C@H](C(=O)O)[C@H](c1ccc2c(c1)O[C@@H](C1CCN(Cc3cc(-c4cn(CCCCCCCCCCCCCCCC(=O)NCC[N+](C)(CCC(=O)NCCN)CCC(=O)NCCN)nn4)ccc3OC(F)(F)F)CC1)CC2)C1CC1` [Example 84] are 0.74 nM and 0.74 nM.
Compound `CCCCCOC(=O)CCCCCCCCCCCCCCCCCc1cn(CC(C)(C)Cc2cc(COc3cccc([C@@H](CC(=O)O)C4CC4)c3)ccc2-c2cc(OC)ccc2F)nn1` [Example 85] registered an EC50 under setting [1] greater than 1300 nM.
`C[C@H](C(=O)O)[C@H](c1ccc2c(c1)O[C@@H](C1CCN(Cc3cc(-n4cc(CCCCCCCCCCC(=O)NCC[N+](C)(CCC(=O)NCCN)CCC(=O)NCCN)nn4)ccc3OC(F)(F)F)CC1)CC2)C1CC1` [Example 86]: the EC50 by setting is: under setting [1], 195 nM; under setting [2], 195 nM.
Take `COc1ccc(F)c(-c2ccc(COc3cccc([C@@H](CC(=O)O)C4CC4)c3)cc2C(C)(C)c2cn(CCCCCCCCCCCC(=O)NCC[N+](C)(CCC(=O)NCCN)CCC(=O)NCCN)nn2)c1` [Example 87]: the EC50 under setting [1] was greater than 2700 nM.
As to `COc1ccc(F)c(-c2ccc(COc3cccc([C@@H](CC(=O)O)C4CC4)c3)cc2OC(C)(C)Cn2cc(CCCCCCCCCCCCCC(=O)NCCN(CCC(=O)NCCN)CCC(=O)NCCN)nn2)c1` [Example 88], the concentration for a half-maximal effect (EC50) under setting [1] worked out at 22.8 nM.
On to `COc1ccc(F)c(-c2ccc(COc3cccc([C@@H](CC(=O)O)C4CC4)c3)cc2CC(C)(C)Cc2cn(CCCCCCCCCCCCCCCC(=O)NCCN(CCC(=O)NCCN)CCC(=O)NCCN)nn2)c1` [Example 89], for which the EC50 was 2.19 nM under setting [1] and 2.19 nM under setting [2].
On to `COc1ccc(F)c(-c2ccc(COc3cccc([C@@H](CC(=O)O)C4CC4)c3)cc2CC(C)(C)Cc2cn(CCCCCCCCCCCCCCCC(=O)NCC[N+](C)(CCC(=O)NCCN)CCC(=O)NCCN)nn2)c1` [Example 90], for which the EC50 runs as follows: under setting [1], 2.6 nM; under setting [2], 2.6 nM.
Compound `COc1ccc(F)c(-c2ccc(COc3cccc([C@@H](CC(=O)O)C4CC4)c3)cc2CC(C)(C)Cc2cn(CCCCCCCCCCCCCCCCCC(=O)NCC[N+](C)(C)CCCS(=O)(=O)O)nn2)c1` [Example 91] yielded an EC50 under setting [1] of 1.52 nM.
For `COc1ccc(F)c(-c2ccc(COc3cccc([C@@H](CC(=O)O)C4CC4)c3)cc2CC(C)(C)Cc2cn(CCCCCCCCCCCC(=O)NCCN(CCC(=O)NCCN)CCC(=O)NCCN)nn2)c1` [Example 92], the EC50 turned out to be 212 nM under setting [1] and 212 nM under setting [2].
In turn, `COc1ccc(F)c(-c2ccc(COc3cccc([C@@H](CC(=O)O)C4CC4)c3)cc2CC(C)(C)Cn2cc(CCCCCCCCCCCCCCCCCC(=O)NCCC[N+](C)(CC(=O)O)CC(=O)O)nn2)c1` [Example 93] showed a 50% effective concentration (EC50) under setting [1] of 4.58 nM.
As to `COc1ccc(F)c(-c2ccc(COc3cccc([C@@H](CC(=O)O)C4CC4)c3)cc2CC(C)(C)Cn2cc(CCCCCCC(=O)NCCN(CCC(=O)NCCN)CCC(=O)NCCN)nn2)c1` [Example 94], the EC50 by setting is: under setting [1], 1950 nM; under setting [2], 1950 nM.
Take `COc1ccc(F)c(-c2ccc(COc3cccc([C@@H](CC(=O)O)C4CC4)c3)cc2CC(C)(C)Cn2cc(CCCCCCC(=O)NCC[N+](C)(CCC(=O)NCCN)CCC(=O)NCCN)nn2)c1` [Example 95]: the EC50 was greater than 10000 nM under setting [1] and greater than 10000 nM under setting [2].
Consider `COc1ccc(F)c(-c2ccc(COc3cccc([C@@H](CC(=O)O)C4CC4)c3)cc2CC(C)(C)Cc2cn(CCCCCCCCCC(=O)NCC[N+](C)(CCC(=O)NCCN)CCC(=O)NCCN)nn2)c1` [Example 96], for which the EC50 was 1050 nM under setting [1] and 1050 nM under setting [2].
Take `COc1ccc(F)c(-c2ccc(COc3cccc([C@@H](CC(=O)O)C4CC4)c3)cc2CC(C)(C)Cc2cn(CCCCCCCCCCCC(=O)NCC[N+](C)(CCC(=O)NCCN)CCC(=O)NCCN)nn2)c1` [Example 97]: the EC50 under setting [1] worked out at 328 nM and a half-maximal response under setting [2] (EC50) required 328 nM.
Consider `COc1ccc(C(=O)N(CC(C)(C)CCCCCCn2cc(CCCCCCC(=O)NCCN(CCC(=O)NCCN)CCC(=O)NCCN)nn2)c2cccc(C)n2)c(N2CCC(COc3cc([C@@H](CC(=O)O)C4CC4)ccn3)CC2)c1` [Example 98], for which the EC50 is, setting by setting: under setting [1], 3.54 nM; under setting [2], 3.54 nM.
In the case of `COc1ccc(C(=O)N(CC(C)(C)CCCCCCn2cc(CCCCCCC(=O)NCC[N+](C)(CCC(=O)NCCN)CCC(=O)NCCN)nn2)c2cccc(C)n2)c(N2CCC(COc3cc([C@@H](CC(=O)O)C4CC4)ccn3)CC2)c1` [Example 99], the concentration for a half-maximal effect (EC50) is, setting by setting: under setting [1], 4.58 nM; under setting [2], 4.58 nM.
With `COc1ccc(F)c(-c2ccc(COc3cccc([C@@H](CC(=O)O)C4CC4)c3)cc2CC(C)(C)Cc2cn(CCCCCCCCCCCCCCC(=O)NCC[N+](C)(CCC(=O)NCCN)CCC(=O)NCCN)nn2)c1` [Example 102], the EC50 runs as follows: under setting [1], 4.05 nM; under setting [2], 4.05 nM.
In turn, `COc1ccc(F)c(-c2ccc(COc3cccc([C@@H](CC(=O)O)C4CC4)c3)cc2C(C)(C)c2cn(CCCCCCCCCCCCCCCC(=O)NCC[N+](C)(CCC(=O)NCCN)CCC(=O)NCCN)nn2)c1` [Example 103] returned an EC50 under setting [1] of 21.5 nM.
Under setting [1], `COc1ccc(F)c(-c2ccc(COc3cccc([C@@H](CC(=O)O)C4CC4)c3)cc2CC(C)(C)Cn2cc(CCCCCCCCCC(=O)NCCCN(CC(=O)O)CC(=O)O)nn2)c1` [Example 104] yielded an EC50 greater than 10000 nM.
Same read-out and setting: the result for `COc1ccc(F)c(-c2ccc(COc3cccc([C@@H](CC(=O)O)C4CC4)c3)cc2CC(C)(C)Cn2cc(CCCCCCCCCC(=O)NCCC[N+](C)(CC(=O)[O-])CC(=O)O)nn2)c1` (stereo partly drawn) [Example 105] reads greater than 10000 nM; that for `COc1ccc(F)c(-c2ccc(COc3cccc([C@@H](CC(=O)O)C4CC4)c3)cc2CC(C)(C)Cn2cc(CCCCCCCCCCCCCC(=O)NCCCN(CC(=O)O)CC(=O)O)nn2)c1` [Example 106], 696 nM; that for `COc1ccc(F)c(-c2ccc(COc3cccc([C@@H](CC(=O)O)C4CC4)c3)cc2CC(C)(C)Cn2cc(CCCCCCCCCCCCCC(=O)NCCC[N+](C)(CC(=O)O)CC(=O)O)nn2)c1` [Example 107], 1310 nM.
As to `COc1ccc(F)c(-c2ccc(COc3cccc([C@@H](CC(=O)O)C4CC4)c3)cc2CC(C)(C)Cn2cc(CCCCCCCCCCCCCCC(=O)NCCCN(CC(=O)O)CC(=O)O)nn2)c1` [Example 108], the EC50 under setting [1] worked out at 312 nM.
